Where a SMILES comes first, the peptide text is derived from it. Bridges are numbered along the chain shown (N, C = ends). [ ]: non-standard residue; d: D form. The star is where a group is joined. hPhe(3-Cl-4-CF3) = N[C@@H](CCc1ccc(C(F)(F)F)c(Cl)c1)C(=O)O; NPrPhe(4-CF3) = CCCN[C@@H](Cc1ccc(C(F)(F)F)cc1)C(=O)O; 3Oxa8azabicyclo(3.2.1)octane = C1CC2COCC1N2*; NEtPhe(4-Me) = CCN[C@@H](Cc1ccc(C)cc1)C(=O)O; NMeGly(cPent) = CN[C@H](C(=O)O)C1CCCC1; Hyp = O=C(O)[C@@H]1C[C@@H](O)CN1; NMeD = CN[C@@H](CC(=O)O)C(=O)O; NMeL = CN[C@@H](CC(C)C)C(=O)O; Morpholide = C1CN(*)CCO1; NMeA = CN[C@@H](C)C(=O)O; Ac5c = NC1(C(=O)O)CCCC1; Aze = O=C(O)[C@@H]1CCN1; X51 = C1CCC(*)OC1; Sar = CNCC(=O)O
Columns and labels:
[1] = biological target: GDP-bound NRAS wild-type protein (Homo sapiens, UniProt P01111); assay: Binding to NRAS by surface plasmon resonance (SPR), Single Cycle Kinetics; conditions: for NRAS/KRAS (ratio of KD value with respect to GDP-bound NRAS wild-type protein to KD value with respect to KRAS): SPR KD ratio NRAS/KRAS, class symbols; for NRAS/KRAS (ratio of KD value for NRAS to KD value for KRAS) / NRAS/KRAS (ratio of KD value with respect to NRAS to KD value with respect to KRAS): SPR, GDP-bound NRAS wild-type protein vs GDP-bound KRAS wild-type protein
Sequence of GDP-bound NRAS wild-type protein (P01111 whole entry): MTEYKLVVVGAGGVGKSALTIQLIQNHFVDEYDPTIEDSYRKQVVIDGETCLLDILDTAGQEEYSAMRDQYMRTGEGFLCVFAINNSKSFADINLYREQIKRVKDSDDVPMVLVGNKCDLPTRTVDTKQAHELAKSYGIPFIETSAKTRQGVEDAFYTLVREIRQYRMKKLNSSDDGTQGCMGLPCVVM

[2] = biological target: GDP-bound HRAS wild-type protein (Homo sapiens, UniProt P01112); assay: Binding to HRAS by surface plasmon resonance (SPR), Single Cycle Kinetics; conditions: for HRAS/KRAS (ratio of KD value with respect to GDP-bound HRAS wild-type protein to KD value with respect to KRAS): SPR KD ratio HRAS/KRAS, class symbols; for HRAS/KRAS (ratio of KD value for HRAS to KD value for KRAS) / HRAS/KRAS (ratio of KD value with respect to HRAS to KD value with respect to KRAS): SPR, GDP-bound HRAS wild-type protein vs GDP-bound KRAS wild-type protein
Sequence of GDP-bound HRAS wild-type protein (P01112 whole entry): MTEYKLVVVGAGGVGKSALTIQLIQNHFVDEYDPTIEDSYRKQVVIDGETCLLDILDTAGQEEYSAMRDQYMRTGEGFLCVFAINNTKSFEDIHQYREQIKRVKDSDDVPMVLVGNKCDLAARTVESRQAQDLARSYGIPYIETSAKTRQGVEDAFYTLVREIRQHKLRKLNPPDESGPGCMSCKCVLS

SMILES | NRAS/KRAS (ratio of KD value for NRAS to KD value for KRAS) [1] | HRAS/KRAS (ratio of KD value for HRAS to KD value for KRAS) [2] | also measured
CCC(CC)[C@H]1C(=O)N(C)[C@H](C(=O)N(C)C)CC(=O)N(C)[C@@H](COC)C(=O)N[C@@H]([C@@H](C)CC)C(=O)N(C)CC(=O)N(C)[C@H]2C/C=C\CCN(C2=O)[C@@H](Cc2ccc(C)cc2)C(=O)N(C)CC(=O)N[C@@H](CCc2ccc(C(F)(F)F)c(OC)c2)C(=O)N2CCOC[C@H]2C(=O)NC2(CC(C)(C)C2)C(=O)N1C [PP2938] | – | – | NRAS/KRAS (ratio of KD value with respect to GDP-bound NRAS wild-type protein to KD value with respect to KRAS) [1]: AA (a compound having 20 or more is denoted as AA); HRAS/KRAS (ratio of KD value with respect to GDP-bound HRAS wild-type protein to KD value with respect to KRAS) [2]: A (a compound having 10 or more and less than 20 is denoted as A)
CCC[C@H]1C(=O)N[C@@H]([C@@H](C)CC)C(=O)N(C)CC(=O)N(C)[C@H]2C/C=C\CCN(C2=O)[C@@H](Cc2ccc(C)cc2)C(=O)N(C)CC(=O)N[C@@H](CCc2ccc3c(C)c(C)n(C)c3c2)C(=O)N2C[C@H](OCC)C[C@H]2C(=O)NC2(CC(C)(C)C2)C(=O)N(C)[C@@H](C(CC)CC)C(=O)N(C)[C@H](C(=O)N(C)C)CC(=O)N1C [PP2906] | – | – | NRAS/KRAS (ratio of KD value with respect to GDP-bound NRAS wild-type protein to KD value with respect to KRAS) [1]: A (a compound having 10 or more and less than 20 is denoted as A); HRAS/KRAS (ratio of KD value with respect to GDP-bound HRAS wild-type protein to KD value with respect to KRAS) [2]: A (a compound having 10 or more and less than 20 is denoted as A)
CCO[C@@H]1C[C@H]2C(=O)NC3(CCC3)C(=O)N(C)[C@@H](C3CCCC3)C(=O)N(C)[C@H](C(=O)N3CCOCC3)CC(=O)N(C)[C@@H](CC(C)C)C(=O)N[C@@H]([C@@H](C)CC)C(=O)N(C)CC(=O)N(C)[C@H]3CC(C)=CCN(C3=O)[C@@H](Cc3ccc(C(F)(F)F)cc3)C(=O)N(C)CC(=O)N[C@@H](CCc3cc(F)c(C(F)(F)F)c(F)c3)C(=O)N2C1 [PP1039] | C (A compound having a KD ratio of 0.1 or more and less than 3 is denoted as C) | C (A compound having a KD ratio of 0.1 or more and less than 3 is denoted as C) | –
CC[C@H](C)[C@@H]1NC(=O)[C@H](CC(C)C)N(C)C(=O)C[C@@H](C(=O)N2CCOCC2)N(C)C(=O)[C@H](C2CCCC2)N(C)C(=O)C2(CCCC2)NC(=O)[C@@H]2C[C@@H](OC3CCCCO3)CN2C(=O)[C@H](CCc2ccc(C(F)(F)F)c(Cl)c2)NC(=O)CN(C)C(=O)[C@H](Cc2ccc(C)cc2)N(CC)C(=O)[C@@H]2CCN2C(=O)[C@H](C)N(C)C1=O (stereo partly drawn) [PP0067] ([NMeL]I[NMeA][Aze][NEtPhe(4-Me)][Sar][hPhe(3-Cl-4-CF3)][Hyp](X51)[Ac5c][NMeGly(cPent)][NMeD]-Morpholide; lactam N-11) | C (A compound having a KD ratio of 0.1 or more and less than 3 is denoted as C) | C (A compound having a KD ratio of 0.1 or more and less than 3 is denoted as C) | –
CCOC[C@H]1C(=O)N[C@@H]([C@@H](C)CC)C(=O)N(C2CC2)CC(=O)N(C)[C@H]2C/C=C\CCN(C2=O)[C@@H](Cc2ccc(C(F)(F)F)cc2)C(=O)N(C)CC(=O)N[C@@H](CCc2ccc(C(F)(F)F)c(OC)c2)C(=O)N2C[C@H](OCC)C[C@H]2C(=O)N(C)C2(CCC2)C(=O)N(C)[C@@H](C(CC)CC)C(=O)N(C)[C@H](C(=O)N(C)C)CC(=O)N1C [PP2315] | A (a compound having 10 or more and less than 20 is denoted as A) | A (a compound having 10 or more and less than 20 is denoted as A) | –
CCCN1C(=O)[C@@H]2CCN2C(=O)[C@H](C)N(C)C(=O)[C@H]([C@@H](C)CC)NC(=O)[C@H](CC(C)C)N(C)C(=O)C[C@@H](C(=O)N2C3CCC2COC3)N(C)C(=O)[C@H](C2CCCC2)N(C)C(=O)C2(CCCC2)NC(=O)[C@@H]2CCCN2C(=O)[C@H](CCc2ccc(C(F)(F)F)c(Cl)c2)NC(=O)CN(C)C(=O)[C@@H]1Cc1ccc(C(F)(F)F)cc1 [PP0182] ([NMeL]I[NMeA][Aze][NPrPhe(4-CF3)][Sar][hPhe(3-Cl-4-CF3)]P[Ac5c][NMeGly(cPent)][NMeD]-{3Oxa8azabicyclo(3.2.1)octane}; lactam N-11) | C (A compound having a KD ratio of 0.1 or more and less than 3 is denoted as C) | B (a compound having 3 or more and less than 10 is denoted as B) | –
CCC[C@H]1C(=O)N[C@@H](C2CCCCC2)C(=O)N(C)CC(=O)N(C)[C@H]2C/C=C\CCN(C2=O)[C@@H](Cc2ccc(C)cc2)C(=O)N(C)CC(=O)N[C@@H](CCc2ccc(C(F)(F)F)c(Cl)c2)C(=O)N2C[C@H](OCC)C[C@H]2C(=O)NC2(CC(C)(C)C2)C(=O)N(C)[C@@H](C2CCCC2)C(=O)N(C)[C@H](C(=O)N(C)C)CC(=O)N1C [PP2998] | A (a compound having 10 or more and less than 20 is denoted as A) | AA (a compound having 20 or more is denoted as AA) | –
CCO[C@@H]1C[C@H]2C(=O)NC3(CCC3)C(=O)N(C)[C@@H](C3CCCC3)C(=O)N(C)[C@H](C(=O)N(C)C)CC(=O)N(C)[C@@H](CC3CCCC3)C(=O)N[C@@H]([C@@H](C)CC)C(=O)N(C)CC(=O)N(C)[C@H]3C/C=C\CCN(C3=O)[C@@H](Cc3ccc(F)cc3C)C(=O)N(C)CC(=O)N[C@@H](CCc3cc(F)c(C(F)(F)F)c(F)c3)C(=O)N2C1 [PP1530] | – | – | NRAS/KRAS (ratio of KD value for NRAS to KD value for KRAS) ([1]; KD ratio class): A (a compound having 10 or more and less than 20 is denoted as A); HRAS/KRAS (ratio of KD value for HRAS to KD value for KRAS) ([2]; KD ratio class): B (a compound having 3 or more and less than 10 is denoted as B)
CCO[C@@H]1C[C@H]2C(=O)NC3(CCC3)C(=O)N(C)[C@@H](C3CCCC3)C(=O)N(C)[C@H](C(=O)N(C)C)CC(=O)N(C)[C@@H](CC)C(=O)N[C@@H]([C@@H](C)CC)C(=O)N3CCCC[C@H]3C(=O)N(C)[C@H]3C/C=C\CCN(C3=O)[C@@H](Cc3ccc(C(F)(F)F)cc3)C(=O)N(C)CC(=O)N[C@@H](CCc3cc(F)c(C(F)(F)F)c(F)c3)C(=O)N2C1 [PP1058] | A (a compound having 10 or more and less than 20 is denoted as A) | B (a compound having 3 or more and less than 10 is denoted as B) | –
CCO[C@@H]1C[C@H]2C(=O)NC3(CCC3)C(=O)N(C)[C@@H](C3CCCC3)C(=O)N(CCC3CCC3)[C@H](C(=O)N3CCOCC3)CC(=O)N(C)[C@@H](CC(C)C)C(=O)N[C@@H]([C@@H](C)CC)C(=O)N(C)CC(=O)N(C)[C@H]3CCCCCN(C3=O)[C@@H](Cc3ccc(C(F)(F)F)cc3)C(=O)N(C)CC(=O)N[C@@H](CCc3cc(F)c(C(F)(F)F)c(F)c3)C(=O)N2C1 [PP0640] | – | – | NRAS/KRAS (ratio of KD value with respect to NRAS to KD value with respect to KRAS) [1]: B (a compound having 3 or more and less than 10 is denoted as B); HRAS/KRAS (ratio of KD value with respect to HRAS to KD value with respect to KRAS) [2]: B (a compound having 3 or more and less than 10 is denoted as B)
CCO[C@@H]1C[C@H]2C(=O)NC3(CCC3)C(=O)N(C)[C@@H](C3CCCC3)C(=O)N(C)[C@H](C(=O)N(C)C)CC(=O)N(C)[C@@H](C)C(=O)N[C@@H]([C@H](C)CC)C(=O)N(C)CC(=O)N(C)[C@H]3CCCCCN(C3=O)[C@@H](Cc3ccc(C(F)(F)F)cc3)C(=O)N(C)CC(=O)N[C@@H](CCc3cc(F)c(C(F)(F)F)c(F)c3)C(=O)N2C1 [PP0729] | – | – | NRAS/KRAS (ratio of KD value with respect to NRAS to KD value with respect to KRAS) [1]: B (a compound having 3 or more and less than 10 is denoted as B); HRAS/KRAS (ratio of KD value with respect to HRAS to KD value with respect to KRAS) [2]: B (a compound having 3 or more and less than 10 is denoted as B)
CCO[C@@H]1C[C@H]2C(=O)NC3(CCC3)C(=O)N(C)[C@@H](C3CCCC3)C(=O)N(C)[C@H](C(=O)N3C4CCC3COC4)CC(=O)N(C)[C@@H](CC)C(=O)N[C@@H]([C@@H](C)CC)C(=O)N(C)CC(=O)N(C)[C@H]3C/C=C\CCN(C3=O)[C@@H](Cc3ccc(C(F)(F)F)cc3)C(=O)N(C)CC(=O)N[C@@H](CCc3cc(F)c(C(F)(F)F)c(F)c3)C(=O)N2C1 [PP1093] | AA (a compound having 20 or more is denoted as AA) | A (a compound having 10 or more and less than 20 is denoted as A) | –
CCO[C@@H]1C[C@H]2C(=O)NC3(CC(C)(C)C3)C(=O)N(C)[C@@H](C3CCCC3)C(=O)N(C)[C@@H](C(C)C)CC(=O)N(C)[C@@H](CC3CC3)C(=O)N[C@@H]([C@@H](C)CC)C(=O)N(C)CC(=O)N(C)[C@H]3C/C=C\CCN(C3=O)[C@@H](Cc3ccc(C(F)(F)F)cc3)C(=O)N(C)CC(=O)N[C@@H](CCc3cc(F)c(C(F)(F)F)c(F)c3)C(=O)N2C1 [PP1594] | – | – | NRAS/KRAS (ratio of KD value for NRAS to KD value for KRAS) ([1]; KD ratio class): A (a compound having 10 or more and less than 20 is denoted as A); HRAS/KRAS (ratio of KD value for HRAS to KD value for KRAS) ([2]; KD ratio class): A (a compound having 10 or more and less than 20 is denoted as A)
CC[C@H](C)[C@@H]1NC(=O)[C@H](CC(C)C)N(C)C(=O)C[C@@H](C(=O)N2CCOCC2)N(C)C(=O)[C@H](C2CCCC2)N(C)C(=O)C2(CCC2)NC(=O)[C@]2(C)CCCN2C(=O)[C@H](CCc2cc(F)c(C(F)(F)F)c(F)c2)NC(=O)CN(C)C(=O)[C@H](Cc2ccc(C(F)(F)F)cc2)N2CCCCC[C@@H](C2=O)N(C)C(=O)CN(C)C1=O [PP0817] | A (a compound having 10 or more and less than 20 is denoted as A) | B (a compound having 3 or more and less than 10 is denoted as B) | –
CCC[C@H]1C(=O)N[C@@H]([C@H](C)CC)C(=O)N(C)CC(=O)N(C)[C@H]2C/C=C\CCN(C2=O)[C@@H](Cc2ccc(C)cc2)C(=O)N(C)CC(=O)N[C@@H](CCc2ccc(C(F)(F)F)c(Cl)c2)C(=O)N2C[C@H](OCC)C[C@H]2C(=O)NC2(CC(C)(C)C2)C(=O)N(C)[C@@H](C2CCCC2)C(=O)N(C)[C@H](C(=O)N(C)C)CC(=O)N1C [PP2221] | A (a compound having 10 or more and less than 20 is denoted as A) | A (a compound having 10 or more and less than 20 is denoted as A) | –

Source: patent publication US20240158446A1, “CYCLIC COMPOUND HAVING SELECTIVE INHIBITORY ACTION ON KRAS OVER HRAS AND NRAS” (CHUGAI SEIYAKU KABUSHIKI KAISHA, priority 2021, published 2024)
